Values of other authors as cited in patent publication US6703022B2, “Composition and method useful for treating colic” (Lev Laboratories, Inc., priority 1999, dated 2004).

Test system: mice
Conditions: at certain doses

For `C=CCc1ccc(OC)cc1` [Estragole, 1-allyl-4-methoxybenzene], the “mutagenic and carcinogenic effects” value is given as “mutagenic and carcinogenic effects”.
